The values below come from patent US20190352276A1, “INHIBITORS OF BRUTON'S TYROSINE KINASE” (Joint Stock Company "Biocad", priority 2016, published 2019).

For series [1], the system named is Mino (mantle cell lymphoma). Nature of the series: Antiproliferative activity, Mino cells (Alamar Blue). It counts as cell-based. The settings on record: Homo sapiens, Table 10, 72 h, average of several tests. How it is done: (§1) Antiproliferative activity of BTK inhibitors was measured in cell-based bioassay on B-cells cultures: Mino (mantle cell lymphoma, ATCC® CRL-3000™), Z-138 (mantle cell lymphoma, ATCC® CRL-3001™) and DOHH2 (follicular lymphoma, Creative Bioarray CSC-C0219) using cell viability reagent Alamar Blue (Invitrogen, #DAL 1100). Cells were cultured in 10% FB S-supplemented (HyClone, #SH3008803/Gibco, #16140-071) RPMI-1640 (PanEco, #S330p) for at least 1 passage after thawing, washed with PBS and passaged in 96-well culture plates (Corning, #3599) with growth medium with 10% FBS (HyClone, #SH3008803/Gibco, #16140-071) and antibiotic (50 μg/ml of gentamicin (Biolot, #1.3.16))≈3*10^4 cells in 50 μl of medium per well.
(§2) The compounds were dissolved in DMSO and diluted with the assay medium to final concentrations ranging from […]. 150 μl of each diluted compound were then added to each well (final concentration of DMSO was less than 1%) and incubated at 37° C. in an incubator under 5% of CO2 for 72 h. After incubation, 20 μl of Alamar Blue reagent (Invitrogen, #DAL1100) were added to each well. The plates were shaked on an orbital shaker (Biosan, Latvia) and then incubated for 14-16 hours at 37° C. in the incubator.
(§3) The number of living cells were estimated, measuring the fluorescence signal at the excitation wavelength (REx) of 540 nm and the emission wavelength (λEm) of 590 nm on a microplate reader (Tecan Infinite M200Pro, Switzerland).
(§4) For each compound, IC50 was calculated using Magellan 7.2 software (Tecan, Switzerland) approximating experimental points by four-parameter logistic model with the optimization by Levenberg-Marquardt.
(In general: Resazurin is reduced to fluorescent resorufin, in cell work by metabolically active cells.)

Series [2] concerns Z-138 (mantle cell lymphoma). Nature of the series: Antiproliferative activity, Z-138 cells (Alamar Blue). As to conditions: Homo sapiens, Table 10, 72 h, average of several tests. The format is cell-based. Here is the method: as §1, §2, §3, §4
Series [3] is described as follows: General cytotoxicity on HepG2 cells (CC50; therapeutic index CC50 HepG2/IC50 Mino). It counts as cell-based. The settings on record: human, HepG2 cells (hepatocellular carcinoma); Table 10; 72 hours, Alamar Blue; average of several tests. Here is the method: (§5) The CC50 values were determined in the test for General cytotoxicity on HepG2 cells (hepatocellular carcinoma, ATCC® HB-8065™). 2*10^4 cells (in 50 μl) per well were seeded in 96-well plates (Corning, #3599) in DMEM medium (PanEco, #S420p), after 24 h of incubation 150 μl of candidate compounds were added to each well in the range of final concentrations from 200 μM to 4 μM and the plate was incubated in a total volume of 200 μl for 72 hours. Viability of the cells was assessed using Alamar Blue dye (Invitrogen, #DAL 1100). CC50 was determined similarly (table 10).
(§6) The relationship between toxic (CC50) and a therapeutic (IC50) effects of the dose is the therapeutic index, which can be expressed as the ratio between CC50 (HepG2) (general cytotoxicity of the candidate) and IC50 (Mino) (antiproliferative activity on the target cells): […]

Series [4] deals with HepG2 cells (hepatocellular carcinoma). Described as above. The format is cell-based. As to conditions: Table 10; therapeutic index. Here is the method:
as §5, §6

The nature of series [5]: Chemical stability in artificial gastric fluid (SGF without enzymes). The settings on record: 10 μM in SGF without enzymes, pH=1.4, 37° C.

pIC50: −log10 of the molar value. A value given as a limit tells only on which side of the number the result lay.

For `C=CC(=O)N1CCC[C@@H](n2nc(-c3ccc(-n4ccc(=O)cc4)cc3)c3c(Cl)c(O)cnc32)C1` [BCD-BTK-13, (R)-1-(4-(1-(1-acryloylpiperidin-3-yl)-4-chloro-5-hydroxy-1H-pyrazolo[3,4-b]pyridin-3-yl)phenyl)pyridin-4(1H)-one], the pIC50 was 4.43 in series [1] and less than 4.30 in series [2]. Moreover, the cytotoxic concentration (CC50) at 72 h in series [3] is more than 100 µM. In addition, the “CC50 (HepG2)/IC50 (Mino)” value in series [4] was more than 2.70. In addition, in series [5], the “Amount of substance in the sample in % (chemical stability)” value (“Amount of substance in the sample in %” below) is on record as 91.0%.
For `C=CC(=O)N1CCC[C@@H](n2nc(-c3ccc(-n4ccc(=O)cc4)cc3)c3cncc(Cl)c32)C1` [BCD-BTK-30, (R)-1-(4-(1-(1-acryloylpiperidin-3-yl)-7-chloro-1H-pyrazolo[4,3-c]pyridin-3-yl)phenyl)pyridin-4(1H)-one] the same measures were 4.81, 4.64, 61.5 µM, 3.94 and 97.7%.
For `C=CC(=O)N1CCC[C@@H](n2nc(-c3ccc(-n4ccc(=O)cc4)nc3)c3cncc(Cl)c32)C1` [BCD-BTK-56, (R)-5′-(1-(1-acryloylpiperidin-3-yl)-7-chloro-1H-pyrazolo[4,3-c]pyridin-3-yl)-4H-[1,2′-bipyridin]-4-one] the same measures were 4.49, 4.52, more than 50 µM, more than 1.54 and 99.0%.
For `C=CC(=O)N1CCC[C@@H](n2nc(-c3cnc(-n4ccc(=O)cc4)nc3)c3c(N)ncc(Cl)c32)C1` [BCD-BTK-74, (R)-1-(5-(1-(1-acryloylpiperidin-3-yl)-4-amino-7-chloro-1H-pyrazolo[4,3-c]pyridin-3-yl)pyrimidin-2-yl)pyridin-4(1H)-one] the same measures were 4.66, 4.75, 100 µM, 4.57 and 98.7%.
Regarding `C=CC(=O)N1CCC[C@@H](n2nc(-c3ccc(-n4ccc(=O)cc4)nc3)c3c(N)ncc(Cl)c32)C1` [BCD-BTK-76, (R)-5′-(1-(1-acryloylpiperidin-3-yl)-4-amino-7-chloro-1H-pyrazolo[4,3-c]pyridin-3-yl)-4H-[1,2′-bipyridin]-4-one], the pIC50 is 4.80 in series [1] and 4.71 in series [2]. For the same compound, in series [3], the 50% cytotoxic concentration (CC50) at 72 h was more than 100 µM. For the same compound, the “CC50 (HepG2)/IC50 (Mino)” value in series [4] was more than 6.27. Besides, in series [5], the “Amount of substance in the sample in %” value came to 99.7%.
The like results for `C=CC(=O)Nc1cc2c(-c3ccc(-n4ccc(=O)cc4)cc3)nn([C@@H]3CCCN(C(=O)C=C)C3)c2nc1C` [BCD-BTK-117, (R)-N-(1-(1-acryloylpiperidin-3-yl)-6-methyl-3-(4-(4-oxopyridin-1(4H)-yl)phenyl)-1H-pyrazolo[3,4-b]pyridin5-yl)acrylamide] were, in that order, 4.88, 4.63, more than 50 µM, more than 3.76 and 99.7%.
As for `C=CC(=O)Oc1cc(C#N)c2c(c1)c(-c1ccc(-n3ccc(=O)cc3)cc1)nn2[C@@H]1CCCN(C(=O)C=C)C1` [BCD-BTK-118, (R)-1-(1-acryloylpiperidin-3-yl)-7-cyano-3-(4-(4-oxopyridin-1(4H)-yl)phenyl)-1H-indazol-5-yl acrylate], the pIC50 was 4.86 in series [1] and 5.11 in series [2]. The CC50 at 72 h in series [3] stood at 66.2 µM. In addition, the “CC50 (HepG2)/IC50 (Mino)” value in series [4] was found to be 4.83. Further, the “Amount of substance in the sample in %” value in series [5] came to 95.4%.
The like results for `C=CC(=O)N1CCC[C@@H](n2nc(-c3ccc(-n4ccc(=O)cc4)cc3)c3cc(N)c(C)nc32)C1` [BCD-BTK-119, (R)-1-(4-(1-(1-acryloylpiperidin-3-yl)-5-amino-6-methyl-1H-pyrazolo[3,4-b]pyridin-3-yl)phenyl) pyridin-4(1H)-one] were, in that order, 4.91, 4.59, more than 100 µM, more than 8.16 and 100.0%.
For `C=CC(=O)N1CCC[C@@H](n2nc(-c3ccc(-n4ccc(=O)cc4)cc3)c3cc(O)cc(C#N)c32)C1` [BCD-BTK-122, (R)-1-(1-acryloylpiperidin-3-yl)-5-hydroxy-3-(4-(4-oxopyridin-1(4H)-yl)phenyl)-1H-indazol-7-carbonitrile] the same measures were 4.45, 4.44, more than 100 µM, more than 2.81 and 97.5%.
For `C=CC(=O)Oc1cnc2c(c(-c3ccc(-n4ccc(=O)cc4)cc3)nn2[C@@H]2CCCN(C(=O)C=C)C2)c1Cl` [BCD-BTK-136, (R)-1-(1-acryloylpiperidin-3-yl)-4-chloro-3-(4-(4-oxopyridin-1(4H)phenyl)-1H-pyrazolo[3,4-b]pyridin-5-yl acrylate] the same measures were 4.90, less than 4.30, more than 100 µM, more than 7.97 and 89.9%.
Take `C=CC(=O)N1CCC[C@@H](n2nc(-c3ccc(Oc4ccncc4)cc3)c3cc(O)cc(C#N)c32)C1` [BCD-BTK-137]: the figures for the pIC50 in series [1] and in series [2] were 4.94 and 4.59, respectively. The compound further gave a CC50 at 72 h in series [3] of 65.9 µM. For the same compound, the “CC50 (HepG2)/IC50 (Mino)” value in series [4] is reported as 5.70. The “Amount of substance in the sample in %” value in series [5] was found to be 94.3%.
On to `C=CC(=O)N1CCC[C@@H](n2nc(-c3ccc(Oc4ccncc4)cc3)c3cncc(C(N)=O)c32)C1` [BCD-BTK-140, (R)-1-(1-acryloylpiperidin-3-yl)-3-(4-(pyridin-4-yloxy)phenyl)-1H-pyrazolo[4,3-c]pyridin-7-carboxamide], for which the figures for the pIC50 in series [1] and in series [2] were 4.77 and less than 4.30, respectively. This compound also yielded a 50% cytotoxic concentration (CC50) at 72 h in series [3] of more than 100 µM. Also, the “CC50 (HepG2)/IC50 (Mino)” value in series [4] is listed as more than 5.93. Moreover, the “Amount of substance in the sample in %” value in series [5] came to 99.4%.
For `C=CC(=O)N1CCC[C@@H](n2nc(-c3ccc(C(=O)Nc4cc(C(F)(F)CC)ccn4)cc3)c3cncc(C#N)c32)C1` [BCD-BTK-219, 4-{7-cyano-1-[1-(prop-2-enoyl)piperidin-3-yl]-1H-pyrazolo[4,3-c]pyridin-3-yl}-N-[4-(1,1-difluoropropyl)pyridin-2-yl] benzamide] the same measures were 5.00, approximately 4.30, more than 100 µM, more than 9.95 and 96.7%.
The like results for `C=CC(=O)N1CCC[C@@H](n2nc(-c3ccc(C(=O)Nc4cc(C(C)(F)F)ccn4)cc3)c3cncc(C#N)c32)C1` [BCD-BTK-224, 4-{7-cyano-1-[(3R)-1-(prop-2-enoyl)piperidin-3-yl]-1H-pyrazolo[4,3-c]pyridin-3-yl}-N-[4-(1,1-difluoroethyl)pyridin-2-yl]benzamide] were, in that order, 4.96, less than 4.30, 73.1 µM, 6.63 and 100%.
For `C=CC(=O)N1CCC[C@@H](n2nc(-c3ccc(Oc4ccncc4C(N)=O)cc3)c3cncc(F)c32)C1` [BCD-BTK-246, (R)-4-(4-(1-(1-acryloylpiperidin-3-yl)-7-fluoro-1H-pyrazolo[4,3-c]pyridin-3-yl)phenoxy)nicotinamide] the same measures were 4.49, 4.62, more than 100 µM, more than 3.09 and 100%.

Broadly, the pIC50 is −log10 of the IC50, conventionally taken in molar units. Read a high pIC50 as a low IC50. The CC50 is the concentration giving 50% cytotoxicity.
